One data set has as its system α-glucosidase. The data set can be described thus: α-glucosidase inhibitory activity, spectrophotometric p-nitrophenyl-α-D-glucopyranoside method. In kind it is biochemical. The settings on record: for IC50: mean ± SEM of three parallel measurements, concentration range 50–100–200–400 μM, read-out: antidiabetic inhibition activity IC50 α-lucosidase. The method, then:
Specifically, 50 μL of phosphate buffer (10 mM, pH 6.9), 25 μL of p-nitrophenyl-α-D-glucopyranoside in phosphate buffer (10 mM, pH 6.9), 10 μL of sample solution, and 25 μL of α-glucosidase (0.1 U/mL) in phosphate buffer (10 mM, pH 6.0) were combined in a 96-well microplate. After 20 min of incubation at 37 °C, 90 μL of Na2CO3 (100 mM) was added to each well to halt the enzymatic reaction. The absorbance was measured at 400 nm by using a 96-well microplate reader.
(§1) All biological activity data were taken in three parallel measurements for four different concentrations of each synthesis sample. The results of the biological activity analyses are presented as the IC50 values.

Data set [1] can be described thus: Cytotoxic activity, MTT cell viability assay, BEAS-2B. In kind it is cell-based. The settings on record: human, BEAS-2B normal bronchial epithelial cells. As for the experimental part: (§2) In this research, the nonsmall lung cancer (A549) and bronchial epithelial normal (BEAS-2B) cells were used for cytotoxicity experiments. All of the cells were cultured in Dulbecco’s Modified Eagle Medium (Gibco, USA) cell medium containing 10% fetal calf serum (FBS; Gibco, USA) and 1% penicillin/streptomycin (Gibco, USA) in an incubator at 37 °C and 5% CO2.[49],[50]
(§3) In a 96-well cell culture plate, cells were seeded at a density of 6 × 10^4 cells/mL and observed to be cultured for 24 h. The cells must have 70% confluence before chemical exposure. After 70% confluency incubation, the cells were treated with different concentrations of compounds for 24 h. All chemicals were dissolved in DMSO. […] The amount of DMSO contained in the chemical at the highest concentration was used as a negative control.
(§4) Cell viability was determined by 3-[4,5-dimethylthiazol-2-yl]-2,5-diphenyltetrazolium bromide (MTT) assay. This method is specifically used to evaluate live cells. The succinate dehydrogenase system of active mitochondria reduces the tetrazolium salt MTT to formazan.[51] For the MTT assay, MTT solution […] was added into the cells (200 μL/well) and incubated for 1 h at 37 °C. Absorbance was measured at 570 nm using an Epoch microplate spectrophotometer (BioTek Instruments, Winooska, VT).[52]
(Tetrazolium assays rely on reduction of a dye to a coloured formazan, in cell work by metabolically active cells.)

Data set [2] concerns nonsmall lung cancer (A549) cells. The data set can be described thus: Cytotoxic activity, MTT cell viability assay, A549. In kind it is cell-based. The conditions noted are these: Homo sapiens, A549, 24 h. The method, then:
as §2, §3, §4

A further data set concerns the target α-amylase. The data set can be described thus: α-amylase inhibitory activity, spectrophotometric starch/Lugol method. The settings on record: mean ± SEM of three parallel measurements; concentration range 50–100–200–400 μM; read-out: antidiabetic inhibition activity IC50 α-amylase. In kind it is biochemical. The method, then:
Briefly, 25 μL of the sample solution at various concentrations was mixed with 50 μL of an α-amylase solution (0.1 U/mL) in a phosphate buffer (20 mM, pH 6.9, prepared with 6 mM NaCl) in a 96-well microplate. This mixture was preincubated at 37 °C for 10 min. Following the preincubation, 50 μL of a starch solution (0.05%) was added, and the reaction mixture was incubated for another 10 min at 37 °C. The reaction was then terminated by adding 25 μL of HCl (0.1 M), followed by the addition of 100 μL of Lugol’s solution for monitoring.
as §1

Data set [3] relates to bronchial epithelial normal (BEAS-2B) cells. Description: Cytotoxic activity, MTT cell viability assay, BEAS-2B. In kind it is cell-based. The settings on record: at the determined IC50 values. As for the experimental part: as §2, §3, §4
In another data set the target is alpha-amylase. Details: method as in PMID 34064448, PMID 32525781, PMID 33272713, PMID 35832461, PMID 28495082. The settings on record: Figure 1 design strategy; cited from earlier work.

What is called IC50 is the concentration at which inhibition is half-maximal.

SMILES strings stand for the structures. A value given as a limit tells only on which side of the number the result lay.

Take `O=C(/C=C/c1ccccc1)c1ccc(N2CCCC2)cc1` [Compound 1, (E)-3-Phenyl-1-(4-(pyrrolidin-1-yl)phenyl)prop-2-en-1-one]: in the data set on α-glucosidase, the “α-glucosidase inhibitory effect compared with acarbose” value is on record as “better inhibitory effect”. Besides, the IC50 on α-glucosidase is 50.2 ± 2.32 µM; in data set [2], > 100 µM. Further, the IC50 at 24 h in data set [1] is > 100 µM.
For `O=C(/C=C/c1ccccc1F)c1ccc(N2CCCC2)cc1` [Compound 2, (E)-3-(2-fluorophenyl)-1-(4-(pyrrolidin-1-yl)phenyl)prop-2-en-1-one], the IC50 on α-amylase was 51.96 ± 0.12 µM; at α-glucosidase it was 189 ± 1.94 µM; in data set [2], > 100 µM. In data set [1], the IC50 at 24 h is > 100 µM.
As for `O=C(/C=C/c1cccc(F)c1)c1ccc(N2CCCC2)cc1` [Compound 3, (E)-3-(3-fluorophenyl)-1-(4-(pyrrolidin-1-yl)phenyl)prop-2-en-1-one], the “α-glucosidase inhibitory effect compared with acarbose” value in the data set with α-glucosidase is “better inhibitory effect”. Also, the IC50 at 24 h in data set [1] was > 100 µM. In addition, in data set [2], the IC50 was > 100 µM.
Turning to `O=C(/C=C/c1ccc(F)cc1)c1ccc(N2CCCC2)cc1` [Compound 4, (E)-3-(4-fluorophenyl)-1-(4-(pyrrolidin-1-yl)phenyl)prop-2-en-1-one], the IC50 at α-amylase is 30.63 ± 0.25 µM; on α-glucosidase, 58.9 ± 3.26 µM; in data set [2], > 100 µM. Also, in the data set on α-glucosidase, the “α-glucosidase inhibitory effect compared with acarbose” value was “better inhibitory effect”. For the same compound, the IC50 at 24 h in data set [1] is > 100 µM.
As for `O=C(/C=C/c1ccccc1C(F)(F)F)c1ccc(N2CCCC2)cc1` [Compound 5, (E)-1-(4-(pyrrolidin-1-yl)phenyl)-3-(2-(trifluoromethyl)phenyl)prop-2-en-1-one], the IC50 is 91.71 ± 0.28 µM at α-amylase, 173 ± 3.45 µM at α-glucosidase and 82.2 µM in data set [2]. Also, in data set [3], the “toxic effect on healthy BEAS-2B cells” value is listed as “no toxic effects”. Moreover, in data set [1], the half-inhibitory concentration (IC50) at 24 h is 97.7 µM.
`O=C(/C=C/c1cccc(C(F)(F)F)c1)c1ccc(N2CCCC2)cc1` [Compound 6, (E)-1-(4-(pyrrolidin-1-yl)phenyl)-3-(3-(trifluoromethyl)phenyl)prop-2-en-1-one]: the values for the IC50 (on α-amylase; on α-glucosidase; in data set [2]) were 83.78 ± 0.38 µM, 54.1 ± 2.87 µM and > 100 µM, respectively. Also, in the data set on α-glucosidase, the “α-glucosidase inhibitory effect compared with acarbose” value was “better inhibitory effect”. For the same compound, the IC50 at 24 h in data set [1] was > 100 µM.
For the compound `O=C(/C=C/c1ccc(C(F)(F)F)cc1)c1ccc(N2CCCC2)cc1` [Compound 7, (E)-1-(4-(pyrrolidin-1-yl)phenyl)-3-(4-(trifluoromethyl)phenyl)prop-2-en-1-one], the IC50 on α-amylase was 38.2 ± 0.83 µM; on α-glucosidase, 46.5 ± 2.16 µM; in data set [2], > 100 µM. In the data set with α-glucosidase, the “α-glucosidase inhibitory effect compared with acarbose” value is given as “better inhibitory effect”. In addition, the IC50 at 24 h in data set [1] is > 100 µM.
With `O=C(/C=C/c1cccc(OC(F)(F)F)c1)c1ccc(N2CCCC2)cc1` [Compound 8, (E)-1-(4-(pyrrolidin-1-yl)phenyl)-3-(3-(trifluoromethoxy)phenyl)prop-2-en-1-one], the IC50 on α-glucosidase worked out at 147.5 ± 0.9 µM; in data set [2] it was 60 µM. In addition, the “toxic effect on healthy BEAS-2B cells” value in data set [3] was “no toxic effects”. Further, the IC50 at 24 h in data set [1] was > 100 µM.
Take `O=C(/C=C/c1ccc(OC(F)(F)F)cc1)c1ccc(N2CCCC2)cc1` [Compound 9, (E)-1-(4-(pyrrolidin-1-yl)phenyl)-3-(4-(trifluoromethoxy)phenyl)prop-2-en-1-one]: the half-maximal inhibitory concentration (IC50) is 39.97 ± 0.26 µM at α-amylase, 61.3 ± 2.48 µM on α-glucosidase and > 100 µM in data set [2]. In the data set with α-glucosidase, the “α-glucosidase inhibitory effect compared with acarbose” value is on record as “better inhibitory effect”. Further, the IC50 at 24 h in data set [1] was > 100 µM.
For `O=C(/C=C/c1cc(C(F)(F)F)cc(C(F)(F)F)c1)c1ccc(N2CCCC2)cc1` [Compound 10, (E)-3-(3,5-bis(trifluoromethyl)phenyl)-1-(4-(pyrrolidin-1-yl)phenyl)prop-2-en-1-one], the results for the IC50 (at α-amylase; on α-glucosidase; in data set [2]) were 39.68 ± 0.27 µM, 44.2 ± 2.42 µM and > 100 µM, respectively. For the same compound, the “α-glucosidase inhibitory effect compared with acarbose” value in the data set with α-glucosidase is “better inhibitory effect”. Moreover, in data set [1], the IC50 at 24 h was > 100 µM.
Turning to `O=C(/C=C/c1cccc(C(F)(F)F)c1F)c1ccc(N2CCCC2)cc1` [Compound 11, (E)-3-(2-fluoro-3-(trifluoromethyl)phenyl)-1-(4-(pyrrolidin-1-yl)phenyl)prop-2-en-1-one], the values for the IC50 (at α-glucosidase; in data set [2]) were 131 ± 3.02 µM and > 100 µM, respectively. The IC50 at 24 h in data set [1] is > 100 µM.
Regarding `O=C(/C=C/c1ccc(C(F)(F)F)cc1F)c1ccc(N2CCCC2)cc1` [Compound 12, (E)-3-(2-fluoro-4-(trifluoromethyl)phenyl)-1-(4-(pyrrolidin-1-yl)phenyl)prop-2-en-1-one], the IC50 on α-amylase is 80.11 ± 0.49 µM; at α-glucosidase it was 81.8 ± 0.85 µM; in data set [2], > 100 µM. Further, the “α-glucosidase inhibitory effect compared with acarbose” value with α-glucosidase is “better inhibitory effect”. Also, the IC50 at 24 h in data set [1] is > 100 µM.
`O=C(/C=C/c1ccc(F)c(C(F)(F)F)c1)c1ccc(N2CCCC2)cc1` [Compound 13, (E)-3-(4-fluoro-3-(trifluoromethyl)phenyl)-1-(4-(pyrrolidin-1-yl)phenyl)prop-2-en-1-one]: the IC50 at α-amylase was 83.8 ± 0.01 µM; at α-glucosidase, 261.5 ± 1.69 µM; in data set [2], > 100 µM. Besides, the IC50 at 24 h in data set [1] is > 100 µM.
Turning to `O=C(/C=C/c1ccccc1)c1ccccc1` [trans-chalcone], the IC50 on alpha-amylase is 96.4 µM.

The values above are taken from article PMC11904715, “Discovery of Novel Pyrrolidine-Based Chalcones as Dual Inhibitors of α-Amylase and α-Glucosidase: Synthesis, Molecular Docking, ADMET Profiles, and Pharmacological Screening” (ACS Omega, 2025).
